Tests used:
[1] = tested on: E. coli 35218R; test: microbe, parasite or virus in culture; conditions: Escherichia coli
[2] = tested on: E. coli 35218R; format: cell-based, Escherichia coli; conditions: 30-μg cefoxitin disc
[3] = tested on: E. coli ATCC 35218; format: cell-based, Escherichia coli; conditions: 30-μg cefoxitin disc
[4] = mouse, in vivo; cited from earlier work
[5] = mouse, in vivo

Compound | MIC [1] [µg/mL] | also measured
C[C@H]1[C@H](NC(=O)/C(=N\OC(C)(C)C(=O)O)c2csc(N)n2)C(=O)N1S(=O)(=O)O [Aztreonam] | ≤ 1 | –
CO/N=C(\C(=O)N[C@@H]1C(=O)N2C(C(=O)[O-])=C(C[N+]3(C)CCCC3)CS[C@H]12)c1csc(N)n1 [Cefepime] | ≤ 1 | –
CO[C@@]1(NC(=O)Cc2cccs2)C(=O)N2C(C(=O)O)=C(COC(N)=O)CS[C@@H]21 [Cefoxitin] | ≤ 4 | inhibition zone (mean ± SD) [2]: 27.9 ± 0.1 mm; inhibition zone (mean ± SD) [3]: 27.2 ± 0.1 mm
CC(C)(O/N=C(\C(=O)N[C@@H]1C(=O)N2C(C(=O)[O-])=C(C[n+]3ccccc3)CS[C@H]12)c1csc(N)n1)C(=O)O [Ceftazidime] | ≤ 1 | –
CO/N=C(\C(=O)N[C@@H]1C(=O)N2C(C(=O)O)=C(CSc3nc(=O)c(=O)[nH]n3C)CS[C@H]12)c1csc(N)n1 [Ceftriaxone] | ≤ 1 | –
C[C@@H](O)[C@H]1C(=O)N2C(C(=O)O)=C(S[C@@H]3CN[C@H](C(=O)Nc4cccc(C(=O)O)c4)C3)[C@H](C)[C@H]12 [Ertapenem] | ≤ 0.5 | –
C[C@@H](O)[C@H]1C(=O)N2C(C(=O)O)=C(SCCN=CN)C[C@H]12 [Imipenem] | ≤ 1 | –
C[C@@H](O)[C@H]1C(=O)N2C(C(=O)O)=C(S[C@@H]3CN[C@H](C(=O)N(C)C)C3)[C@H](C)[C@H]12 [Meropenem] | ≤ 0.25 | –
CN[C@H](CC(C)C)C(=O)N[C@H]1C(=O)N[C@@H](CC(N)=O)C(=O)N[C@H]2C(=O)N[C@H]3C(=O)N[C@H](C(=O)N[C@H](C(=O)O)c4cc(O)cc(O)c4-c4cc3ccc4O)[C@H](O)c3ccc(c(Cl)c3)Oc3cc2cc(c3O[C@@H]2O[C@H](CO)[C@@H](O)[C@H](O)[C@H]2O[C@H]2C[C@](C)(N)[C@H](O)[C@H](C)O2)Oc2ccc(cc2Cl)[C@H]1O [vancomycin] | – | elimination half-life [4]: ~30 min
piperacillin-tazobactam [Farmalogica] | – | bioequivalence test versus innovator [5]: passed
piperacillin-tazobactam [Procaps] | – | bioequivalence test versus innovator [5]: passed

From paper PMC4871539 (PLoS ONE, 2016)
